pIC50: −log10 of the molar value. Where a SMILES comes first, the peptide text is derived from it. Bridges are numbered along the chain shown (N, C = ends).
Columns and labels:
[1] = biological target: human α3β2 nAChR (Homo sapiens, UniProt P17787+P32297); assay: cell-based; type: cell-based
[2] = biological target: human α3β4 nAChR (Homo sapiens, UniProt P30926+P32297); assay: cell-based
[3] = biological target: Ac-AChBP (Aplysia californica, UniProt Q8WSF8); assay: biochemical; type: binding
Sequence of Ac-AChBP (Q8WSF8 20-236 limits assumed): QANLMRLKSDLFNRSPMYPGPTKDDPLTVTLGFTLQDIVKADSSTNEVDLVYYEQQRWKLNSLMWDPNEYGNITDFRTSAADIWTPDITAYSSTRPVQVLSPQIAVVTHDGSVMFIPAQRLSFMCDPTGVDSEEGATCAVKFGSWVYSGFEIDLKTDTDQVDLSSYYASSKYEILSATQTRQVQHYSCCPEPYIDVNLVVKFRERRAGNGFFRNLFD

Sequence of human α3β2 nAChR (P32297 32-505 limits assumed): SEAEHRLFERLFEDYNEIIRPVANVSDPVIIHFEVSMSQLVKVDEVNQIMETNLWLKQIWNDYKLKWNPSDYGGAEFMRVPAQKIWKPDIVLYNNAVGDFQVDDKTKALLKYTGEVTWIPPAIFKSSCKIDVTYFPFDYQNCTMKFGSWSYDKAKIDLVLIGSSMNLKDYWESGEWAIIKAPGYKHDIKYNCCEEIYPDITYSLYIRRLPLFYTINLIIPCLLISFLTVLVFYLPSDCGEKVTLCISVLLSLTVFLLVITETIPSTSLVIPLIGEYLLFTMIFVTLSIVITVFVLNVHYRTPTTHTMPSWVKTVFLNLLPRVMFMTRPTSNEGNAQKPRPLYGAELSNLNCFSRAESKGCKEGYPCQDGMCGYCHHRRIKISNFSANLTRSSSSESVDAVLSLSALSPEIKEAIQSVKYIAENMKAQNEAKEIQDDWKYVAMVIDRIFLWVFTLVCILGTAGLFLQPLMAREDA
Sequence of human α3β2 nAChR (P17787 26-502 limits assumed): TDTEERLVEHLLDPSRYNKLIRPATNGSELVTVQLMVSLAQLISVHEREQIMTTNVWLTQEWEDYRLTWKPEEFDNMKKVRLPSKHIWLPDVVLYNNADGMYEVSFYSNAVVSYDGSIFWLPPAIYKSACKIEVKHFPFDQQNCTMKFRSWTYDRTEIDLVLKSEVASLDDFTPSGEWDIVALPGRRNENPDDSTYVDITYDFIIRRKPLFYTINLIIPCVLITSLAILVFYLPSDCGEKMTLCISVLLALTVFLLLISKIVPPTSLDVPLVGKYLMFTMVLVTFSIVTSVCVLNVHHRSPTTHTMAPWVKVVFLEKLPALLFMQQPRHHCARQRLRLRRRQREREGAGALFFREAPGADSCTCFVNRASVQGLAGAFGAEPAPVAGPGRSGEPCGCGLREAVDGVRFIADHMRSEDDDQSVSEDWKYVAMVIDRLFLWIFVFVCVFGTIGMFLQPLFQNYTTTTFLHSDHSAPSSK
Sequence of human α3β4 nAChR (P32297 32-505 limits assumed): as the sequence (P32297 32-505 limits assumed) above
Sequence of human α3β4 nAChR (P30926 22-498 limits assumed): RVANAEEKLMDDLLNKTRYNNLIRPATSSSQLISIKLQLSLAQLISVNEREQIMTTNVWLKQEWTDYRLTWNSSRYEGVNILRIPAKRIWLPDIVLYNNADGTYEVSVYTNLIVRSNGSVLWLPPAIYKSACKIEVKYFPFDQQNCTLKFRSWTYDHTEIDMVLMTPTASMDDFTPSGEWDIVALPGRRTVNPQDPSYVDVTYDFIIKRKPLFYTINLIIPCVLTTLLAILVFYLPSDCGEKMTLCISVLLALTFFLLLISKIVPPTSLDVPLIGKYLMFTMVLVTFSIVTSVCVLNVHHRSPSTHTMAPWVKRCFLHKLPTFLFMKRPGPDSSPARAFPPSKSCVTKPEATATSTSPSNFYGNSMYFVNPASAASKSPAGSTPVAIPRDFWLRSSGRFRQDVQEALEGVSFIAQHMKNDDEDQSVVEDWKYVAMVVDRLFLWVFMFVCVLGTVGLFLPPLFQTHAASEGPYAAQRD

Row | SMILES | pIC50 [1] | pIC50 [2] | Decrease in the inhibition of α3β2 nAChR versus wild-type GIC [1] | Increase in the IC50 value for Ac-AChBP versus wild-type GIC [3]
1 | CC[C@H](C)[C@@H]1NC(=O)[C@H](Cc2c[nH]cn2)NC(=O)[C@H](CCC(N)=O)NC(=O)[C@H](CC(N)=O)NC(=O)[C@H](C)NC(=O)CNC(=O)[C@H](C)NC(=O)[C@@H]2CSSC[C@H](NC(=O)CN)C(=O)N[C@@H](CSSC[C@@H](C(N)=O)NC1=O)C(=O)N[C@@H](CO)C(=O)N[C@@H](Cc1c[nH]cn1)C(=O)N1CCC[C@H]1C(=O)N[C@@H](C)C(=O)N2 [GIC(N11A)] (H-GCCSHPACAGANQHIC-NH2; disulfide 2-8, 3-16) | 5.80 | < 5.00 |  | 
2 | CC[C@H](C)[C@@H]1NC(=O)[C@H](Cc2c[nH]cn2)NC(=O)[C@H](CCC(N)=O)NC(=O)[C@H](C)NC(=O)[C@H](CC(N)=O)NC(=O)CNC(=O)[C@H](C)NC(=O)[C@@H]2CSSC[C@H](NC(=O)CN)C(=O)N[C@@H](CSSC[C@@H](C(N)=O)NC1=O)C(=O)N[C@@H](CO)C(=O)N[C@@H](Cc1c[nH]cn1)C(=O)N1CCC[C@H]1C(=O)N[C@@H](C)C(=O)N2 [GIC(N12A)] (H-GCCSHPACAGNAQHIC-NH2; disulfide 2-8, 3-16) | 5.70 | < 5.00 |  | 
3 | CC[C@H](C)[C@@H]1NC(=O)[C@H](Cc2c[nH]cn2)NC(=O)[C@H](CCC(N)=O)NC(=O)[C@H](CC(N)=O)NC(=O)[C@H](CC(N)=O)NC(=O)CNC(=O)[C@H](C)NC(=O)[C@@H]2CSSC[C@H](NC(=O)CN)C(=O)N[C@@H](CSSC[C@@H](C(N)=O)NC1=O)C(=O)N[C@@H](CO)C(=O)N[C@@H](Cc1c[nH]cn1)C(=O)N1CCC[C@H]1C(=O)N[C@@H](CC(C)C)C(=O)N2 [GIC(A7L)] (H-GCCSHPLCAGNNQHIC-NH2; disulfide 2-8, 3-16) | < 5.00 | < 5.00 | more than 10,000 fold | 
4 | CC[C@H](C)[C@@H]1NC(=O)[C@H](Cc2c[nH]cn2)NC(=O)[C@H](C)NC(=O)[C@H](CC(N)=O)NC(=O)[C@H](CC(N)=O)NC(=O)CNC(=O)[C@H](C)NC(=O)[C@@H]2CSSC[C@H](NC(=O)CN)C(=O)N[C@@H](CSSC[C@@H](C(N)=O)NC1=O)C(=O)N[C@@H](CO)C(=O)N[C@@H](Cc1c[nH]cn1)C(=O)N1CCC[C@H]1C(=O)N[C@@H](C)C(=O)N2 [GIC(Q13A)] | 8.08 | 6.18 |  | 
5 | CC[C@H](C)[C@@H]1NC(=O)[C@H](Cc2c[nH]cn2)NC(=O)[C@H](CCC(N)=O)NC(=O)[C@H](CC(N)=O)NC(=O)[C@H](CC(N)=O)NC(=O)CNC(=O)[C@H](C)NC(=O)[C@@H]2CSSC[C@H](NC(=O)CN)C(=O)N[C@@H](CSSC[C@@H](C(N)=O)NC1=O)C(=O)N[C@@H](CO)C(=O)N[C@@H](C)C(=O)N1CCC[C@H]1C(=O)N[C@@H](C)C(=O)N2 [GIC(H5A)] (H-GCCSAPACAGNNQHIC-NH2; disulfide 2-8, 3-16) | < 5.00 | < 5.00 | more than 10,000 fold | ~100 fold
6 | CC[C@H](C)[C@@H]1NC(=O)[C@H](Cc2c[nH]cn2)NC(=O)[C@H](CCC(N)=O)NC(=O)[C@H](CC(N)=O)NC(=O)[C@H](CC(N)=O)NC(=O)CNC(=O)[C@H](C)NC(=O)[C@@H]2CSSC[C@H](NC(=O)CN)C(=O)N[C@@H](CSSC[C@@H](C(N)=O)NC1=O)C(=O)N[C@@H](CO)C(=O)N[C@@H](Cc1c[nH]cn1)C(=O)N1CCC[C@H]1C(=O)NCC(=O)N2 [GIC(A7G)] (H-GCCSHPGCAGNNQHIC-NH2; disulfide 2-8, 3-16) | 5.38 | < 5.00 |  | 

From PMC4772116 (Scientific Reports, 2016)
